{
  "source": "paper PMC7617459",
  "about": "“Comparative Evaluation and Profiling of Chemical Tools for the Nuclear Hormone Receptor Family 2” (ACS pharmacology & translational science, 2025)",
  "key": {"PNR": {"tested_on": "PNR", "design": "method as in PMID 35508617", "conditions": "cited from earlier work"}, "[1]": {"target": "PNR mutations associated with Enhanced S-Cone Syndrome (ESCS)", "design": "method as in PMID 35508617", "conditions": "cited from earlier work"}, "COS-7 cells": {"tested_on": "COS-7 cells", "assay": "Multiplex toxicity assay", "format": "cell-based", "conditions": "24 h, at active concentration", "description": "COS-7 cells (DSMZ #ACC 60) were cultured at 37°C and 5% CO2 in DMEM high glucose medium supplemented with sodium pyruvate (1 mM), penicillin (100 U/mL), streptomycin (100 µg/mL), and 10% fetal calf serum (FCS). After aspirating the wells, the cells were seeded at 1x10^5 cells per well in complete culture medium. […] Each sample was prepared in at least 4 biologically independent replicates. After incubation for 24 h, the wells were aspirated and incubated for 30 min with stimulation medium containing 1 µM NucView® 405 fluorogenic caspase-3 substrate (#10405, Biotium, Fremont, USA) and Live-or-Dye Nuc-Fix Red (0.05x, Biotium, Inc., Fremont, CA, 1691 USA) to detect apoptosis and necrosis, respectively. After incubation, a total of 6 fluorescence images per well at 10x magnification were taken to detect NucView®-positive (Ex: 381–400 nm, Em: 414–450 nm) and Live-or-Dye-positive cells (Ex: 543−566 nm, Em: 580−611 nm) using on a Tecan Spark Cyto (Tecan Group AG). Reference readings for background correction and detection of auto-fluorescence were taken at 414–450 nm prior to staining. Thereafter, wells were aspirated, the cells were incubated for 3 h with 90 µL culture medium (0.2% FCS) and 10 µL Cell Counting Kit-8 solution (CCK-8, MedChem Express #HY-K0301), and absorbance was measured at 1, 2, and 3h of incubation at 450 nm on a Tecan Spark Cyto to assess metabolic activity of the cells. Before drug administration, after the first medium exchange, 24 h after drug administration, and after fluorescence imaging cell confluence was assessed using the Tecan Spark Cyto, to account for changes in cell confluence due to drug administration and cell handling. The number of apoptotic cells, metabolic activity, and changes in cell confluence in response to drug treatment were all normalized to the vehicle control of each biological replicate individually."}, "nuclear receptors": {"tested_on": "nuclear receptors", "assay": "Selectivity profiling in Gal4-hybrid reporter gene assay panel", "format": "cell-based, human", "conditions": "at active concentration", "experimental": "Compounds were tested at concentrations around EC90 according to the literature or at the highest nontoxic concentration (from the multiplex toxicity assay). […] (b) Selectivity profiling of NR2 modulators in a representative panel of nuclear receptors outside the NR2 family. […] Effects <5% of the respective reference ligands were considered as not relevant and omitted. Only effects are shown that are statistically significant against VP16 ctrl (Figure S3); n = 3."}, "MBP-NR2E1-LBD": {"tested_on": "MBP-NR2E1-LBD", "design": "method as in PMID 35508617", "conditions": "MS-based binding experiment; cited from earlier work"}, "MBP-PNR-LBD": {"target": "MBP-PNR-LBD", "design": "method as in PMID 35508617", "conditions": "determined by UV absorption; cited from earlier work"}, "PNR protein levels": {"tested_on": "PNR protein levels", "design": "method as in PMID 35508617, PMID 19379737", "conditions": "retinoblastoma cells, 1 µM, Western blot; cited from earlier work"}, "ATF6": {"tested_on": "ATF6", "assay": "ATF6 activity assay", "format": "cell-based", "conditions": "tunicamycin treated Hela ATF6 reporter cells", "text": "Next, we evaluated the potential impact of the NR2 modulator set on endoplasmic reticulum (ER) stress in an ATF6 activity assay (Fig. 4b). The activating transcription factor 6 (ATF6) participates in the unfolded protein response and is activated under ER stress.[164] Tunicamycin-induced ATF6 activity was not affected by RXR and TLX modulators but was reduced by the inverse PNR agonists 22 and 23.\nHela cells containing a Renilla luciferase reporter gene for ATF6 activity (ATF6 Leeporter™ Luciferase Reporter-HeLa Cell Line, Abeomics Inc.; #14-138ACL) were cultured in DMEM supplemented with 10% heat-inactivated FCS, penicillin (100 U/mL), streptomycin (100 μg/mL) and puromycin (3 µg/mL) at 37°C and 5% (v/v) CO2 and seeded in 96-well plates (1 × 10^5 per well). After 24 h, the cells were incubated with the test compounds solubilized with 0.1% DMSO in the same medium without puromycin. After 4 h of incubation, tunicamycin (100 ng/mL) was added. After another 18 h of incubation, cells were assayed for renilla luminescence using DualGlo reagent (Promega) on a Tecan SPARK Cyto (Tecan). Test samples were normalized to the 0.1% DMSO control."}, "NR2F1 [2]": {"tested_on": "NR2F1", "design": "method as in PMID 34812843", "conditions": "T-Hep3 cells on chicken embryo chorioallantoic membrane; cited from earlier work"}, "[3]": {"tested_on": "NR2F1-regulated genes SOX9, RARβ, and p27", "design": "method as in PMID 34812843", "conditions": "chicken embryo chorioallantoic membrane tumors; cited from earlier work"}, "[4]": {"tested_on": "head and neck squamous-cell carcinoma (HNSCC)", "design": "method as in PMID 34812843", "conditions": "mice; cited from earlier work"}, "NR2F1 [5]": {"tested_on": "NR2F1", "design": "method as in PMID 34812843", "conditions": "cited from earlier work"}, "PNR (NR2E3)": {"target": "T1, PNR (NR2E3) (Homo sapiens, UniProt Q9Y5X4)", "T1 construct": "encoding the hinge region and the LBD of the canonical isoform of the respective human nuclear receptors; expressed in transfected cells; host or cells: HEK293T", "T1 sequence (Q9Y5X4 169-410 limits assumed)": "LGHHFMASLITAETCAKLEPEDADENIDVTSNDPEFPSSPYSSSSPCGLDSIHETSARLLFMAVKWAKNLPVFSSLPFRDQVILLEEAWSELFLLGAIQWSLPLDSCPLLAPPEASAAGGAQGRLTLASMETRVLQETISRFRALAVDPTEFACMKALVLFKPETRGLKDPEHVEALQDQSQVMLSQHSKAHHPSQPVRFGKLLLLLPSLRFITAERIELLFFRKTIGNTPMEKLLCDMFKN", "assay": "Gal4-hybrid reporter gene assay PNR", "format": "cell-based", "conditions": "selected test concentration (Figure 3)", "description": "Gal4-hybrid reporter gene assays were performed as described previously using the plasmids pFA-CMV-hTHRα-LBD,[170] pFA-CMV-hRARα-LBD,[171] pFA-CMV-hPPARα-LBD,[172] pFA-CMV-hPPARγ-LBD,[172] pFA-CMV-hPPARδ-LBD,[172] pFA-CMV-revERBα-LBD,[158] pFA-CMV-hRORα-LBD,[173] pFA-CMV-hLXRα-LBD,[118] pFA-CMV-hFXR-LBD,[174] pFA-CMV-hVDR-LBD,[171] pFA-CMV-hCAR-LBD,[171] pFA-CMV-hHNF4α-LBD,[110] pFA-CMV-hRXRα-LBD,[175] pFA-CMV-hTR2-LBD,[102] pFA-CMV-hTR4-LBD,[102] pFA-CMV-hTLX-LBD,[102] pFA-CMV-hNR2E3-LBD,[102] pFA-CMV-hNur77-LBD,[176] pFA-CMV-hSF1-LBD[158] encoding the hinge region and the LBD of the canonical isoform of the respective human nuclear receptors. pFR-Luc (Stratagene, La Jolla, CA, USA) was used as a reporter plasmid, and pRL-SV40 (Promega, Madison, WI, USA) was used for normalization of transfection efficiency and cell growth. HEK293T cells (German Collection of Microorganisms and Cell Culture GmbH, DSMZ) were cultured in Dulbecco’s modified Eagle’s medium (DMEM), high glucose supplemented with 10% fetal calf serum (FCS), sodium pyruvate (1 mM), penicillin (100 U/mL), and streptomycin (100 μg/mL) at 37 °C and 5% CO2 and seeded in 96-well plates (3 × 10^4 cells/well). The medium was changed to Opti-MEM without supplements, and the cells were transiently transfected with one pFA-CMV-hNR-LBD clone, pFR-Luc, and pRL-SV40 using Lipofectamine LTX reagent (Invitrogen, Thermo Fisher Scientific) according to the manufacturer’s instructions. Five hours after transfection, cells were incubated with the test compounds in Opti-MEM supplemented with penicillin (100 U/mL), streptomycin (100 μg/mL), and 0.1% DMSO. Each sample was set up in duplicates and tested in at least three independent experiments. After 16 h incubation, luciferase activity was measured using the Dual-Glo Luciferase Assay System (Promega) according to the manufacturer’s protocol on a Tecan Spark luminometer (Tecan Deutschland GmbH, Crailsheim, Germany). Firefly luminescence was divided by Renilla luminescence and multiplied by 1000 resulting in relative light units (RLUs) to normalize for transfection efficiency and cell growth. Fold activation was obtained by dividing the mean RLU of the test compound by the mean^a RLU of the untreated control, and relative activation was calculated by dividing the fold activation of a test sample by the fold activation of the respective reference agonist. Antagonistic effects were evaluated by coincubation of the test compound with the respective reference ligand."}, "COUP-TF2": {"tested_on": "COUP-TF2", "design": "method as in PMID 32494682", "conditions": "reporter gene assay; cited from earlier work"}, "[6]": {"tested_on": "COUP-TF2 target genes FOXM1 and CDK1", "design": "method as in PMID 32494682", "conditions": "prostate cancer cells; cited from earlier work"}, "prostate cancer tumor": {"tested_on": "prostate cancer tumor", "design": "method as in PMID 32494682", "conditions": "xenograft mouse model, 2.6 mg/kg; cited from earlier work"}, "[7]": {"tested_on": "HNF4α, RXRα, PPARα, LXRα, GR, PR, ER, RAR, RORγ, AR, and COUP-TF1", "design": "method as in PMID 32494682", "conditions": "cited from earlier work"}},
  "note": "pEC50, pIC50, pKd: −log10 of the molar value.",
  "data": [
    {"smiles": "C=CC1=C(C)/C(=C/C2=NC(=C\\c3[nH]c(/C=C4\\NC(=O)C(C)=C4C=C)c(C)c3CCC(=O)O)/C(CCC(=O)O)=C2C)NC1=O", "note": "[compound 25, biliverdin]", "values": [
      {"measurement": "PNR activation", "setting": "PNR; reporter gene assay in 293F cells", "result": "approximately 3 fold"},
      {"measurement": "pEC50", "setting": "PNR; reporter gene assay", "result": 8.30},
      {"measurement": "pKd", "setting": "[1]", "result": 5.05},
      {"measurement": "cytotoxicity", "setting": "COS-7 cells", "result": "lack of cytotoxicity"},
      {"measurement": "selectivity over other nuclear receptors", "setting": "nuclear receptors", "result": "Favorable selectivity profiles"},
      {"measurement": "interaction with MBP-NR2E1-LBD (TLX)", "setting": "MBP-NR2E1-LBD", "result": "no interaction"},
      {"measurement": "pKd", "setting": "MBP-PNR-LBD", "result": 6.70},
      {"measurement": "PNR protein levels", "setting": "PNR protein levels", "result": "two-fold increase"},
      {"measurement": "tunicamycin-induced ATF6 activity", "setting": "ATF6", "result": "slightly diminished"}
    ]},
    {"smiles": "CCSc1nnc2n(CCc3ccccc3)c(=O)c3c(n12)-c1ccccc1CC31CCCCC1", "note": "[compound 26]", "values": [
      {"measurement": "increase in NR2F1 mRNA", "setting": "NR2F1 [2]", "result": 2.3, "unit": "fold"},
      {"measurement": "increase in NR2F1 protein levels", "setting": "NR2F1 [2]", "result": 10, "unit": "fold"},
      {"measurement": "expression of NR2F1-regulated genes SOX9, RARβ, and p27", "setting": "[3]", "result": "induced expression"},
      {"measurement": "tumor growth and metastasis of HNSCC", "setting": "[4]", "result": "inhibited tumor growth and metastasis"},
      {"measurement": "fold activation @ 0.1 μM", "setting": "NR2F1 [5]; reporter gene assay, 0.1 μM", "result": 2.4, "unit": "f.A."},
      {"measurement": "fold activation @ 1 μM", "setting": "NR2F1 [5]; reporter gene assay, 1 μM", "result": 1.9, "unit": "f.A."},
      {"measurement": "pEC50", "setting": "NR2F1 [5]; reporter gene assay, two cell lines", "result": "6.00 to 6.30"},
      {"measurement": "enhancement of reporter activity", "setting": "NR2F1 [5]; two cell lines", "result": "approximately two-fold"},
      {"measurement": "PNR modulation", "setting": "PNR (NR2E3)", "result": "confirmed albeit with rather low efficacy"}
    ]},
    {"smiles": "COc1ccc(CCNc2ncnc3sc(C)cc23)cc1OC", "note": "[compound 27]", "values": [
      {"measurement": "pIC50", "setting": "COUP-TF2", "result": 5.49},
      {"measurement": "expression of COUP-TF2 target genes FOXM1 and CDK1", "setting": "[6]", "result": "altered expression"},
      {"measurement": "prostate cancer tumor growth and angiogenesis", "setting": "prostate cancer tumor", "result": "inhibited prostate cancer tumor growth and angiogenesis"},
      {"measurement": "interaction with related NRs in pulldown assay", "setting": "[7]", "result": "no relevant interaction"}
    ]}
  ]
}
